# According to patent US20140004458A1, “MAGENTA TONER” (CANON KABUSHIKI KAISHA, priority 2011, published 2014):
# Experiments:
# [1] = evaluation of lightfastness of image sample (Atlas Weather-Ometer Ci4000); format: physicochemical; conditions: toner using the compound, in words; for lightfastness: satisfactory = ΔE less than 10 after 60 hours
# Method: The image samples were placed in Atlas Weather-Ometer Ci4000 (from Toyo Seiki Seisaku-sho, Ltd.) and exposed for 60 hours. In this case, measurement conditions were as follows: black panel temperature: 50° C., chamber temperature: 40° C., relative humidity: 70%, and irradiance: 0.39 W/m^2 (340 nm).
# The chromaticity (L*, a*, b*) in the L*a*b* color system was measured with the reflection densitometer (Model: SpectroLino, manufactured by GretagMacbeth) before and after the exposure test. The color difference (ΔE) was calculated from the following expression on the basis of measurements of the color characteristics:
# Color difference(ΔE)={(a*before test−a*after test)^2+(b*before test−b*after test)^2+(L*before test−L*after test)^2}^1/2
# In the case where ΔE was less than 10 after 60 hours, the sample was evaluated to have satisfactory lightfastness.
# [2] = evaluation of lightness and saturation of image sample (L*a*b* chromaticity); format: physicochemical; conditions: toner using the compound, in words
# Method: Image samples were formed using the resulting toners. The lightness and saturation of the samples were evaluated. To compare image characteristics, an image output test was made using a modified apparatus of LBP-5300 (manufactured by CANON KABUSHIKI KAISHA) as an image forming apparatus. The modification was performed in such a manner that a developing blade in a process cartridge was replaced with a stainless blade having a thickness of […] and that a blade bias of −200 V against a developing bias that was applied to a developing roller serving as a toner support was applicable.
# With respect to each of the resulting image samples, chromaticity (L*, a*, b*) in the L*a*b* color system was measured with a reflection densitometer (Model: SpectroLino, manufactured by GretagMacbeth).
# In the L*a*b* space, color coordinates indicating the magenta color of the Japan Color 2001 are defined as X (L1, a1, b1). In the L*a*b* space, coordinates of an intersection point of a plane including the L* axis and the coordinates X and the a*b* curve of the image sample obtained by the chromaticity measurement are defined as Y (L2, a2, b2). The a*b* curve is obtained by forming a plurality of image samples having different toner adhesion amounts. The difference Δc (=c2−c1) between a c* value [=c2={(a2^2+b2^2)}^1/2] at the intersection point Y and a c* value [=c1={(a1^2+b1^2)}^1/2] at the coordinates X was calculated. The difference ΔL (=L2−L1) between an L* value (=L2) at the intersection point Y and an L* value (=L1) at the coordinates X was calculated.
# The lightness and saturation were evaluated on the basis of the following evaluation criteria.
# A: Δc is 0 or more, and ΔL is 0 or more; B: Δc is −5 or more, and ΔL is −5 or more, excluding the case of Class A described above; and C: Δc is less than −5, or ΔL is less than −5.
# In the case where Δc was −5 or more and ΔL was −5 or more, the sample was evaluated to have satisfactory lightness and saturation.
SMILES,balance between the saturation and lightfastness [1],lightness [2],lightfastness [1],lightness and saturation [2]
CCN(CC)c1ccc2c(c1)Oc1cc(N(CC)CC)ccc1C21OC(=O)c2ccccc21 [(1)],not provided,satisfactory,–,–
Cc1ccc(Nc2ccc3c4c(cc(=O)n3C)-c3ccccc3C(=O)c24)cc1 [(2)],–,–,satisfactory,not sufficient
Cc1ccc(/N=N/c2c(O)c(C(=O)O)cc3ccccc23)c(S(=O)(=O)O)c1 [(3)],–,–,satisfactory,not sufficient
